Source: patent US10975068B2, “6-aminopyridin-3-yl thiazoles as modulators of RORγT” (Janssen Pharmaceutica NV, priority 2016, dated 2021)
Where two headings read alike, the source gives them in different places.

Experiments:
[1] = molecular target: human RORγt ligand binding domain (RORγt LBD) (Homo sapiens (Human), UniProt P51449); experiment: RORγt ThermoFluor® assay (thermal shift binding); conditions: for Kd: read-out: ThermoFluor® Assay, Kd
Method in brief: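 Binding was inferred from thermal stabilisation (ΔTm) of the E. coli-expressed RORγt LBD (0.065 mg/mL), monitored by 1,8-ANS (60 μM) emission at 500 nm during a 1 °C/min ramp. Buffer was Hepes 100 mM pH 7.0 with NaCl, GSH and Tween-20.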

[2] = molecular target: full-length human RORγt (Homo sapiens (Human), UniProt P51449); experiment: RORγt (full-length human) reporter assay, Conditions B or C; assay type: cell-based; conditions: for RORγt (FL) Reporter Assay B or C, % inhibition (value marked *): marked *: footnote not given; for inhibition at 3 µM: at 3 μM compound concentration, read-out: RORγt (FL) Reporter Assay B or C, % inhibition
full-length human RORγt, sequence (P51449 other isoform, or with tags, fused parts or gaps): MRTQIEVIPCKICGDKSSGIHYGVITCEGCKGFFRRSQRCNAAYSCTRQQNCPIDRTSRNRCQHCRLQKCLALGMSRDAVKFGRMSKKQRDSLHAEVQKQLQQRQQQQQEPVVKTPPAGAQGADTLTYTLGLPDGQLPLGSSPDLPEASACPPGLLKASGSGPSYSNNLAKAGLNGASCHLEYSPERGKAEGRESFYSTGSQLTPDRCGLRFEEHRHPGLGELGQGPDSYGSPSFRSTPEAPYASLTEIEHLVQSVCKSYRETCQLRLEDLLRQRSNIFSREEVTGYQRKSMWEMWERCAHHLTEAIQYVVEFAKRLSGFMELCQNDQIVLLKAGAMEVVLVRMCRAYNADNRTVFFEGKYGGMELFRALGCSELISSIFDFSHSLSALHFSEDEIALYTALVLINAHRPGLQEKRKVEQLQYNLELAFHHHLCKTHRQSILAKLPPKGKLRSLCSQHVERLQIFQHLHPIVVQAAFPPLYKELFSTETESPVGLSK
Method in brief: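 Readout is dual luciferase: firefly (GAL4-driven) normalized to DMSO-only and saturating-reference controls, then to CMV-Renilla. Full-length human RORγt fused to GAL4-DBD was transiently expressed in HEK293T; compound exposure ran overnight (16-20 h) starting 4-6 h after transfection, final FBS 1.3%, DMSO 0.1%.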

[3] = Conditions B or C, read-out: RORγt (FL) Reporter Assay B or C, IC50
[4] = read-out: RORγt (FL) Reporter Assay B or C, IC50
[5] = RORγt (FL) Reporter Assay B or C, IC50
[6] = compared to Comparator Example 1
[7] = compared to Comparator Example 2

human RORγt ligand binding domain (RORγt LBD), sequence (P51449 other isoform, or with tags, fused parts or gaps): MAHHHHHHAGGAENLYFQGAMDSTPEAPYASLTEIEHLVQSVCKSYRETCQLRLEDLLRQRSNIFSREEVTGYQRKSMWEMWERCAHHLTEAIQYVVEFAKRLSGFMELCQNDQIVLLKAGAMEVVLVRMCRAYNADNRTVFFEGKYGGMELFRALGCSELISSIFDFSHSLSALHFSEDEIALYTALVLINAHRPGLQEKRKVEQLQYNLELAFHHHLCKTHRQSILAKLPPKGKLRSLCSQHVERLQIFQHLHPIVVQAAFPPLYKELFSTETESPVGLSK

Row | Compound | Kd [1] | RORγt (FL) Reporter Assay B or C, % inhibition (value marked *) ([2]; Conditions B or C) | IC50 [2, 3] | inhibition at 3 µM [2] | IC50 [2, 4] | further results
1 | C[C@H]1CCCN1C(=O)c1nc(C(=O)NC2CS(=O)(=O)C2)sc1-c1cnc(NC2CCCC2)cc1C(F)F [Example 61, (S)-5-(6-(Cyclopentylamino)-4-(difluoromethyl)pyridin-3-yl)-N-(1,1-dioxidothietan-3-yl)-4-(2-methylpyrrolidine-1-carbonyl)thiazole-2-carboxamide] | 0.007 µM | 103* % | 0.013 µM |  |  | 
2 | CC[C@H](Nc1cc(C(F)(F)F)c(-c2sc(C(=O)N[C@H]3COC[C@@H]3O)nc2C(=O)N2CCC[C@@H]2C)cn1)C(F)(F)F [Example 174, N-((3S,4R)-4-Hydroxytetrahydrofuran-3-yl)-4-((2S)-2-methylpyrrolidine-1-carbonyl)-5-(4-(trifluoromethyl)-6-(((1S)-1-(trifluoromethyl)propyl)amino)-3-pyridyl)thiazole-2-carboxamide] | 0.0014 µM | 106* % | 0.025 µM |  |  | 
3 | C[C@H]1CCCN1C(=O)c1nc(C(=O)N[C@H]2CC[C@@H](O)C2)sc1-c1cnc(NC(C)(C)C)cc1C(F)(F)F [Example 367, 5-[6-(tert-Buylamino)-4-(trifluoromethyl)-3-pyridyl]-N-[(1S,3R)-3-hydroxycyclopentyl]-4-[(2S)-2-methylpyrrolidine-1-carbonyl]thiazole-2-carboxamide] | 0.0021 µM |  |  | 99% | 0.021 µM | 
4 | C[C@H](CO)NC(=O)c1nc(C(=O)N2C3CCC2CC3)c(-c2cnc(NC(C)(C)C)cc2C(F)F)s1 [Example 427, 4-((1s,4s)-7-Azabicyclo[2.2.1]heptane-7-carbonyl)-5-[6-(tert-butylamino)-4-(difluoromethyl)-3-pyridyl]-N-[(1R)-2-hydroxy-1-methyl-ethyl]thiazole-2-carboxamide] | 0.003 µM |  |  | 113% |  | IC50 [2, 5]: 0.003 µM
5 | C[C@H]1CCCN1C(=O)c1nc(C(=O)NCc2nnn[nH]2)sc1-c1cnc(NC(C)(C)C)cc1C(F)(F)F [Example 303, (S)—N-((1H-Tetrazol-5-yl)methyl)-5-(6-(tert-butylamino)-4-(trifluoromethyl)pyridin-3-yl)-4-(2-methylpyrrolidine-1-carbonyl)thiazole-2-carboxamide] | 0.015 µM |  |  | 88% | 0.74 µM | 
6 | CC[C@H](Nc1cc(C(F)F)c(-c2sc(C(=O)N[C@@H]3CC[C@H]3O)nc2C(=O)N2C3CCC2CC3)cn1)C(F)(F)F (relative stereo) [Example 405, 4-((1s,4s)-7-Azabicyclo[2.2.1]heptane-7-carbonyl)-5-(4-(difluoromethyl)-6-(((S)-1,1,1-trifluorobutan-2-yl)amino)pyridin-3-yl)-N-((1R*,2R*)-2-hydroxycyclobutyl)thiazole-2-carboxamide] | 0.002 µM |  |  | 95% | 0.11 µM | 
7 | C[C@H](Nc1cc(C(F)F)c(-c2sc(C(=O)N[C@@H]3CCC[C@H]3O)nc2C(=O)N2C3CCC2CC3)cn1)C(F)(F)F [Example 224, 4-((1s,4s)-7-Azabicyclo[2.2.1]heptane-7-carbonyl)-5-(4-(difluoromethyl)-6-(((1S)-2,2,2-trifluoro-1-methyl-ethyl)amino)-3-pyridyl)-N-((1R,2R)-2-hydroxycyclopentyl)thiazole-2-carboxamide] | 0.0027 µM | 112* % |  |  |  | IC50 ([2]; RORγt (FL) Reporter Assay B or C, IC50 (μM), Conditions B or C): 0.026 µM
8 | C[C@H](Nc1cc(C(F)F)c(-c2sc(C(=O)N[C@H]3CCC[C@@H]3O)nc2C(=O)N2CCC[C@@H]2C)cn1)C(F)(F)F [Example 285, 5-(4-(Difluoromethyl)-6-(((S)-1,1,1-trifluoropropan-2-yl)amino)pyridin-3-yl)-N-((1S,2S)-2-hydroxycyclopentyl)-4-((S)-2-methylpyrrolidine-1-carbonyl)thiazole-2-carboxamide] | 0.0029 µM |  |  | 104% | 0.064 µM | 
9 | C[C@H]1CC(F)(F)CN1C(=O)c1nc(C(=O)NCC(C)(C)O)sc1-c1cnc(NC(C)(C)C2CC2)cc1C(F)(F)F [Example 107, (S)-5-(6-((2-Cyclopropylpropan-2-yl)amino)-4-(trifluoromethyl)pyridin-3-yl)-4-(4,4-difluoro-2-methylpyrrolidine-1-carbonyl)-N-(2-hydroxy-2-methylpropyl)thiazole-2-carboxamide] | 0.00026 µM | 111* % | 0.011 µM |  |  | 
10 | C[C@H]1CCCN1C(=O)c1nc(C(=O)NC[C@H](O)C(F)(F)F)sc1-c1cnc(NC(C)(C)C)cc1C(F)(F)F (relative stereo) [Example 353, 5-(6-(tert-Butylamino)-4-(trifluoromethyl)pyridin-3-yl)-4-((S)-2-methylpyrrolidine-1-carbonyl)-N—((S*)-3,3,3-trifluoro-2-hydroxypropyl)thiazole-2-carboxamide] | 0.0016 µM |  |  | 95% | 0.02 µM | 
11 | C[C@H]1CC(F)(F)CN1C(=O)c1nc(C(=O)NC2CCS(=O)(=O)CC2)sc1-c1cnc(NC(C)(C)C)cc1C(F)F [Example 431, 5-[6-(tert-Butylamino)-4-(difluoromethyl)-3-pyridyl]-4-[(2S)-4,4-difluoro-2-methyl-pyrrolidine-1-carbonyl]-N-(1,1-dioxothian-4-yl)thiazole-2-carboxamide] | 0.00036 µM |  |  | 107% | 0.02 µM | 
12 | C[C@@H](NC(=O)c1nc(C(=O)N2C3CCC2CC3)c(-c2cnc(N[C@@H](C3CC3)C(F)(F)F)cc2C(F)F)s1)C(C)(C)O [Example 316, 4-((1s,4s)-7-Azabicyclo[2.2.1]heptane-7-carbonyl)-5-(6-(((S)-1-cyclopropyl-2,2,2-trifluoroethyl)amino)-4-(difluoromethyl)pyridin-3-yl)-N—((R)-3-hydroxy-3-methylbutan-2-yl)thiazole-2-carboxamide] | 0.0029 µM |  |  | 108% |  | IC50 [2, 5]: 0.032 µM
13 | CC[C@@H](Nc1cc(C(F)F)c(-c2sc(C(=O)N[C@H]3C[C@H](O)C3)nc2C(=O)N2CCC[C@@H]2C)cn1)C(F)(F)F [Example 205, 5-(4-(Difluoromethyl)-6-(((1R)-1-(trifluoromethyl)propyl)amino)-3-pyridyl)-N-((1r,3S)-3-hydroxycyclobutyl)-4-((2S)-2-methylpyrrolidine-1-carbonyl)thiazole-2-carboxamide] | 0.0068 µM | 103* % | 0.033 µM |  |  | 
14 | C[C@H]1CCCN1C(=O)c1nc(C(=O)NCC(C)(C)O)sc1-c1cnc(NC2CCCCC2)c(C#N)c1 [Example 146, (S)-5-(5-Cyano-6-(cyclohexylamino)pyridin-3-yl)-N-(2-hydroxy-2-methylpropyl)-4-(2-methylpyrrolidine-1-carbonyl)thiazole-2-carboxamide] | 0.21 µM | 98* % | 0.83 µM |  |  | fold improvement in RORγt Thermofluor® binding assay activity [1, 6]: 14 fold; fold improvement in RORγt Thermofluor® binding assay activity [1, 7]: 27 fold; IC50 ([2]; HEK293T cells, read-out: RORγt (FL) Reporter Assay B or C, IC50): 0.83 µM; fold improvement in RORγt reporter assay activity [2, 6]: 7.2 fold; fold improvement in RORγt reporter assay activity [2, 7]: 3.6 fold
15 | C[C@H](NC(=O)c1nc(C(=O)N2CC(F)(F)C[C@@H]2C)c(-c2cnc(NC3(C)CCC3)cc2C(F)(F)F)s1)C(C)(C)O [Example 195, 4-((S)-4,4-Difluoro-2-methylpyrrolidine-1-carbonyl)-N—((S)-3-hydroxy-3-methylbutan-2-yl)-5-(6-((1-methylcyclobutyl)amino)-4-(trifluoromethyl)pyridine-3-yl)thiazole-2-carboxamide] | 0.00043 µM | 85* % | 0.033 µM |  |  | 
16 | CC[C@H](CO)NC(=O)c1nc(C(=O)N2CCC[C@@H]2C)c(-c2cnc(N[C@@H](C)C(F)(F)F)cc2C(F)F)s1 [Example 408, 5-[4-(Difluoromethyl)-6-[[(1S)-2,2,2-trifluoro-1-methyl-ethyl]amino]-3-pyridyl]-N-[(1R)-1-(hydroxymethyl)propyl]-4-[(2S)-2-methylpyrrolidine-1-carbonyl]thiazole-2-carboxamide] | 0.0038 µM |  |  | 83% | 0.073 µM | 
17 | C[C@H]1CCCN1C(=O)c1nc(C(=O)N[C@H]2C[C@@](C)(O)C2)sc1-c1cnc(NC(C)(C)C)cc1C(F)(F)F [Example 337, 5-[6-(tert-Butylamino)-4-(trifluoromethyl)-3-pyridyl]-N-(3-hydroxy-3-methyl-cyclobutyl)-4-[(2S)-2-methylpyrrolidine-1-carbonyl]thiazole-2-carboxamide] | 0.0029 µM |  |  | 105% | 0.013 µM | 
18 | CC[C@H](Nc1cc(C(F)F)c(-c2sc(C(=O)N[C@@H](C)C(C)(C)O)nc2C(=O)N2CCCC[C@@H]2C)cn1)C(F)(F)F [Example 247, 5-[4-(Difluoromethyl)-6-[[(1S)-1-(trifluoromethyl)propyl]amino]-3-pyridyl]-N-[(1S)-2-hydroxy-1,2-dimethyl-propyl]-4-[(2S)-2-methylpiperidine-1-carbonyl]thiazole-2-carboxamide] | 0.00028 µM | 100* % | 0.023 µM |  |  | 
